# Reference: patent US20140255392A1 (BAYER INTELLECTUAL PROPERTY GMBH, priority 2011, published 2014)
# Molecular target: T1, human kinase Mps-1 (Homo sapiens, UniProt P33981)
# T1 construct: N-terminally GST-tagged human full length recombinant Mps-1 kinase; GST (N); purchased Invitrogen, Karslruhe, Germany PV4071
# T1 sequence (P33981 1-857): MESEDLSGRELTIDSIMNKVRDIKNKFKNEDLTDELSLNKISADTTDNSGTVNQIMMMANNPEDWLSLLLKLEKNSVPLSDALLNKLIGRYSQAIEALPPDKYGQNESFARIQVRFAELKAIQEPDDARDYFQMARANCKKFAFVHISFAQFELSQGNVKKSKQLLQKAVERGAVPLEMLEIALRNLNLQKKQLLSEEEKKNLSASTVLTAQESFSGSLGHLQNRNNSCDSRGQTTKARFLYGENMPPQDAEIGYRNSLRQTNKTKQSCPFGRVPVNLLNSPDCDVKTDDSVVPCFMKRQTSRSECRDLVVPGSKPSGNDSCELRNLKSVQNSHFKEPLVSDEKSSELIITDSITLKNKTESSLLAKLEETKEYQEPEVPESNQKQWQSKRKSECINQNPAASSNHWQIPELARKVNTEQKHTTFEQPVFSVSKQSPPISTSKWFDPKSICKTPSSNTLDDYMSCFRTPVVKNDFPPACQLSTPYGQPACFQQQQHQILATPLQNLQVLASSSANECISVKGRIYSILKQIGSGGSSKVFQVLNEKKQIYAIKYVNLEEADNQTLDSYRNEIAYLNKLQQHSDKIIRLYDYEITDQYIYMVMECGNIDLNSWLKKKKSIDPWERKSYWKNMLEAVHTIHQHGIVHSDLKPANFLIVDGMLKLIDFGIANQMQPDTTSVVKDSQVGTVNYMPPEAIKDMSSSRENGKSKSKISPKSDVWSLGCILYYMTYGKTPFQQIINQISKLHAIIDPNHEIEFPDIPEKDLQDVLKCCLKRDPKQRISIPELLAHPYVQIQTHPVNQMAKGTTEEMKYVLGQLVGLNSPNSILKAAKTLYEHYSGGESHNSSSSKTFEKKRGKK
# Test: Mps-1 kinase assay (TR-FRET)
# Type: biochemical
# Conditions: N-terminally GST-tagged human full length recombinant Mps-1; 10 μM ATP; 1 μM peptide substrate; 60 min at 22° C.
# Summary of the method: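 Compounds were tested against recombinant full-length Mps-1 bearing an N-terminal GST tag, about 1 nM final, with a biotinylated amide-capped peptide as substrate. Detection reagents were then bound for 1 h at 22° C and the product read by TR-FRET.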
row,IC50 [nM],SMILES
1,0.5,"CNC(=O)c1ccc(-c2cc(NCCC(F)(F)F)c3ncc(-c4ccc(C(=O)NC5CC5)c(C)c4)n3c2)cc1C [Example 147, 4-{3-[4-(cyclopropylcarbamoyl)-3-methylphenyl]-8-[(3,3,3-trifluoropropyl)amino]imidazo[1,2-a]pyridin-6-yl}-N,2-dimethylbenzamide]"
2,1,"CCNC(=O)c1ccc(-c2cc(NCCC(F)(F)F)c3ncc(-c4ccc(C(=O)NC5CC5)c(C)c4)n3c2)cc1C [Example 148, 4-{3-[4-(cyclopropylcarbamoyl)-3-methylphenyl]-8-[(3,3,3-trifluoropropyl)amino]imidazo[1,2-a]pyridin-6-yl}-N-ethyl-2-methylbenzamide]"
3,3,"Cc1cc(-c2cnc3c(NCCC(F)(F)F)cc(-c4ccc(C(=O)NC5(C)CC5)c(C)c4)cn23)ccc1C(=O)NC1CC1 [Example 149, 4-{3-[4-(cyclopropylcarbamoyl)-3-methylphenyl]-8-[(3,3,3-trifluoropropyl)amino]imidazo[1,2-a]pyridin-6-yl}-2-methyl-N-(1-methylcyclopropyl)benzamide]"
4,0.8,"Cc1cc(-c2cnc3c(NCCC(F)(F)F)cc(-c4ccc(C(=O)NC5(C#N)CC5)c(C)c4)cn23)ccc1C(=O)NC1CC1 [Example 150, 4-(6-{4-[(1-cyanocyclopropyl)carbamoyl]-3-methylphenyl}-8-[(3,3,3-trifluoropropyl)amino]imidazo[1,2-a]pyridin-3-yl)-N-cyclopropyl-2-methylbenzamide]"
5,2.6,"Cc1cc(-c2cnc3c(NCCC(F)(F)F)cc(-c4ccc(C(=O)NC5(CO)CC5)c(C)c4)cn23)ccc1C(=O)NC1CC1 [Example 151, 4-{3-[4-(cyclopropylcarbamoyl)-3-methylphenyl]-8-[(3,3,3-trifluoropropyl)amino]imidazo[1,2-a]pyridin-6-yl}-N-[1-(hydroxymethyl)cyclopropyl]-2-methylbenzamide]"
6,0.5,"Cc1cc(-c2cc(NCCC(F)(F)F)c3ncc(-c4ccc(C(=O)NC5CC5)c(C)c4)n3c2)ccc1C(N)=O [Example 153, 4-{6-(4-carbamoyl-3-methylphenyl)-8-[(3,3,3-trifluoropropyl)amino]imidazo[1,2-a]pyridin-3-yl}-N-cyclopropyl-2-methylbenzamide]"
7,21.3,"CNC(=O)c1ccc(-c2cnc3c(NCCC(F)(F)F)cc(-c4ccc(C(=O)NC5(C#N)CC5)c(C)c4)cn23)cc1C [Example 156, 4-(6-{4-[(1-cyanocyclopropyl)carbamoyl]-3-methylphenyl}-8-[(3,3,3-trifluoropropyl)amino]imidazo[1,2-a]pyridin-3-yl)-N,2-dimethylbenzamide]"
8,15.3,"CNC(=O)c1ccc(-c2cnc3c(NCCC(F)(F)F)cc(-c4ccc(C(=O)NC5(C)CC5)c(C)c4)cn23)cc1C [Example 157, 2-methyl-N-(1-methylcyclopropyl)-4-{3-[3-methyl-4-(methylcarbamoyl)phenyl]-8-[(3,3,3-trifluoropropyl)amino]imidazo[1,2-a]pyridin-6-yl}benzamide]"
9,6.2,"CNC(=O)c1ccc(-c2cnc3c(NCCC(F)(F)F)cc(-c4ccc(C(=O)NC5CC5)c(C)c4)cn23)cc1C [Example 158, 4-{6-[4-(cyclopropylcarbamoyl)-3-methylphenyl]-8-[(3,3,3-trifluoropropyl)amino]imidazo[1,2-a]pyridin-3-yl}-N,2-dimethylbenzamide]"

# Continued, compound first:
row,SMILES,IC50 [nM]
1,"Cc1cc(-c2cnc3c(NCCC(F)(F)F)cc(CCO)cn23)ccc1C(=O)NC1CC1 [Example 141, N-cyclopropyl-4-{6-(2-hydroxyethyl)-8-[(3,3,3-trifluoropropyl)amino]imidazo[1,2-a]pyridin-3-yl}-2-methylbenzamide]",26.2
2,"CNC(=O)c1ccc(-c2cnc3c(NCCC(F)(F)F)cc(CCO)cn23)cc1C [Example 142, 4-{6-(2-Hydroxyethyl)-8-[(3,3,3-trifluoropropyl)amino]imidazo[1,2-a]pyridin-3-yl}-N,2-dimethylbenzamide]",244
3,"COc1c(F)cccc1Oc1cc(NCCC(F)(F)F)c2ncc(-c3ccc(C(=O)NC4CC4)c(C)c3)n2c1 [Example 146, N-cyclopropyl-4-{6-(3-fluoro-2-methoxyphenoxy)-8-[(3,3,3-trifluoropropyl)amino]imidazo[1,2-a]pyridin-3-yl}-2-methylbenzamide]",3.2
4,"CNC(=O)c1ccc(-c2cnc3c(NCCC(F)(F)F)cc(-c4ccc(C(=O)NC5(CO)CC5)c(C)c4)cn23)cc1C [Example 155, 4-{6-(4-{[1-(hydroxymethyl)cyclopropyl]carbamoyl}-3-methylphenyl)-8-[(3,3,3-trifluoropropyl)amino]imidazo[1,2-a]pyridin-3-yl}-N,2-dimethylbenzamide]",21.1
5,"CCNC(=O)c1ccc(-c2cc(NCCC(F)(F)F)c3ncc(-c4ccc(C(=O)NC)c(C)c4)n3c2)cc1C [Example 159, 4-{6-[4-(ethylcarbamoyl)-3-methylphenyl]-8-[(3,3,3-trifluoropropyl)amino]imidazo[1,2-a]pyridin-3-yl}-N,2-dimethylbenzamide]",9.1
6,"CNC(=O)c1ccc(-c2cnc3c(NCCC(F)(F)F)cc(-c4ccc(C(N)=O)c(C)c4)cn23)cc1C [Example 160, 4-{6-(4-carbamoyl-3-methylphenyl)-8-[(3,3,3-trifluoropropyl)amino]imidazo[1,2-a]pyridin-3-yl}-N,2-dimethylbenzamide]",2.3
7,"Cc1cc(-c2cnc3c(NCC(F)F)cc(Oc4cccc(F)c4)cn23)ccc1C(=O)NC1CC1 [Example 161, N-cyclopropyl-4-{8-[(2,2-difluoroethyl)amino]-6-(3-fluorophenoxy)imidazo[1,2-a]pyridin-3-yl}-2-methylbenzamide]",2.3
8,"COc1ccc(Oc2cc(NCC(F)F)c3ncc(-c4ccc(C(=O)NC5CC5)c(C)c4)n3c2)cc1 [Example 162, N-cyclopropyl-4-{8-[(2,2-difluoroethyl)amino]-6-(4-methoxyphenoxy)imidazo[1,2-a]pyridin-3-yl}-2-methylbenzamide]",8.6
9,"Cc1cc(-c2cnc3c(NCC(F)F)cc(Oc4cccc(F)c4F)cn23)ccc1C(=O)NC1CC1 [Example 163, N-cyclopropyl-4-{8-[(2,2-difluoroethyl)amino]-6-(2,3-difluorophenoxy)imidazo[1,2-a]pyridin-3-yl}-2-methylbenzamide]",1.3
10,"Cc1ccc(F)cc1Oc1cc(NCC(F)F)c2ncc(-c3ccc(C(=O)NC4CC4)c(C)c3)n2c1 [Example 164, N-cyclopropyl-4-{8-[(2,2-difluoroethyl)amino]-6-(5-fluoro-2-methylphenoxy)imidazo[1,2-a]pyridin-3-yl}-2-methylbenzamide]",13.8
11,"Cc1cc(-c2cnc3c(NCC(F)F)cc(Oc4cc(F)ccc4F)cn23)ccc1C(=O)NC1CC1 [Example 165, N-cyclopropyl-4-{8-[(2,2-difluoroethyl)amino]-6-(2,5-difluorophenoxy)imidazo[1,2-a]pyridin-3-yl}-2-methylbenzamide]",48.3
12,"COc1ccc(Oc2cc(NCC(F)F)c3ncc(-c4ccc(C(=O)NC5CC5)c(C)c4)n3c2)cc1F [Example 167, N-cyclopropyl-4-{8-[(2,2-difluoroethyl)amino]-6-(3-fluoro-4-methoxyphenoxy)imidazo[1,2-a]pyridin-3-yl}-2-methylbenzamide]",6.2
